Values of other authors as cited in patent US9730952B2, “Methods for treating and preventing mucositis” (Indena S.p.A., priority 2006, dated 2017).

Columns and labels:
[1] = system: Gram+ and Gram− bacteria
[2] = system: numerous strains of Candida and other pathogenic fungi

Structure (SMILES)	concentration inhibiting growth of Gram+ and Gram− bacteria [1]	concentration inhibiting growth of numerous strains of Candida and other pathogenic fungi [2]
COc1ccc2c(c[n+](C)c3c4cc5c(cc4ccc23)OCO5)c1OC [chelerythrine]	nanomolar concentrations	nanomolar concentrations
CN1Cc2c(ccc3c2OCO3)[C@@H]2[C@H]1c1cc3c(cc1C[C@@H]2O)OCO3 [chelidonine]	nanomolar concentrations	nanomolar concentrations
